# Measured values from US4282243A, “Optical isomers of 4-amino-N-(1-cyclohexyl-3-pyrrolidinyl)-N-methylbenzamide” (A. H. Robins Company, Inc., priority 1980, dated 1981).
# How the values were obtained:
# Assay type in all cases: in vivo
# [1] = system: rat; experiment: Cataleptic effects in rat, procedure based on Tedeschi et al.; conditions: for cataleptic effect (NSE = no significant cataleptic effect in doses up to indicated amount): rat, fumarate salts, expressed as free base
# Source text: (§1) The procedure used for determining cataleptic effects of the fumarate salts was based on that of Tedeschi et al., Arch. Int. Pharmacodyn.
# [2] = system: dog; experiment: Anti-emetic activity in dogs, modified anti-apomorphine method; conditions: fumarate salts; for ED50: Canis lupus familiaris, sc, expressed as free base, read-out: ED50 (95% Confidence Limits), anti-apomorphine
# Protocol: The anti-emetic properties of the fumarate salts were established in dogs using a modification of the anti-apomorphine methods of Chen and Ensor, J. Pharmac. Exp. Ther. 98, 245-250 (1950) and of Leonard et al., J. Pharmac. Exp. Ther. 154, 339-345 (1966) and the ED50 was calculated by the method of Goldstein (Biostatistics, An Introductory Text, pg. 156-161, The MacMillan Co., N. Y., 1964).
# [3] = Cataleptic effects in rat, procedure based on Tedeschi et al.; conditions: in vivo; rat, IP; fumarate salts, expressed as free base; read-out: ED50, cataleptic effect
# Source text: as §1
Compound,cataleptic properties ([1]; general statement),cataleptic effect (NSE = no significant cataleptic effect in doses up to indicated amount) ([1]; IP),cataleptic effect (NSE = no significant cataleptic effect in doses up to indicated amount) ([1]; PO),ED50 [2] [mg/kg],anti-apomorphine activity (words in the ED50 column) ([2]; s.c.),ED50 [3] [mg/kg]
"CN(C(=O)c1ccc(N)cc1)C1CCN(C2CCCCC2)C1 (racemic) [± racemate, 4-amino-N-(1-cyclohexyl-3-pyrrolidinyl)-N-methylbenzamide]",notable absence of cataleptic properties,NSE to 100,NSE to 200,0.25,–,–
"CN(C(=O)c1ccc(N)cc1)C1CCN(C2CCCCC2)C1 (single isomer, unassigned; (+)) [(+)-isomer, (+)-4-amino-N-(1-cyclohexyl-3-pyrrolidinyl)-N-methylbenzamide]",–,NSE to 100,NSE to 200,–,no significant,–
"CN(C(=O)c1ccc(N)cc1)C1CCN(C2CCCCC2)C1 (single isomer, unassigned; (-)) [(-)-isomer, (-)-4-amino-N-(1-cyclohexyl-3-pyrrolidinyl)-N-methylbenzamide]",–,–,–,0.09,–,> 100
